Laboratory results taken from patent US11673897B2, “Compounds for the treatment of kinase-dependent disorders” (Exelixis, Inc., priority 2018, dated 2023).

Key:
Met [1] = biological target: T1, Met (Homo sapiens (Human), UniProt P08581); experiment: Met autophosphorylation ELISA in PC-3 cells; type: cell-based; conditions: cellular, HGF-stimulated, phospho-Met ELISA, read-out: c-Met IC50
How it was run: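 PC-3 cells serum-starved 3 h were treated 1 h with an 8-point compound series (0.3% DMSO), then stimulated 10 min with 100 ng/mL human HGF. Phospho-Met (panTyr) in lysates was measured by sandwich ELISA against DMSO (100%) and reference-inhibitor (0%) controls, and IC50 came from a 4-parameter logistic fit.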
Target sequence in this assay (P08581 25-1390): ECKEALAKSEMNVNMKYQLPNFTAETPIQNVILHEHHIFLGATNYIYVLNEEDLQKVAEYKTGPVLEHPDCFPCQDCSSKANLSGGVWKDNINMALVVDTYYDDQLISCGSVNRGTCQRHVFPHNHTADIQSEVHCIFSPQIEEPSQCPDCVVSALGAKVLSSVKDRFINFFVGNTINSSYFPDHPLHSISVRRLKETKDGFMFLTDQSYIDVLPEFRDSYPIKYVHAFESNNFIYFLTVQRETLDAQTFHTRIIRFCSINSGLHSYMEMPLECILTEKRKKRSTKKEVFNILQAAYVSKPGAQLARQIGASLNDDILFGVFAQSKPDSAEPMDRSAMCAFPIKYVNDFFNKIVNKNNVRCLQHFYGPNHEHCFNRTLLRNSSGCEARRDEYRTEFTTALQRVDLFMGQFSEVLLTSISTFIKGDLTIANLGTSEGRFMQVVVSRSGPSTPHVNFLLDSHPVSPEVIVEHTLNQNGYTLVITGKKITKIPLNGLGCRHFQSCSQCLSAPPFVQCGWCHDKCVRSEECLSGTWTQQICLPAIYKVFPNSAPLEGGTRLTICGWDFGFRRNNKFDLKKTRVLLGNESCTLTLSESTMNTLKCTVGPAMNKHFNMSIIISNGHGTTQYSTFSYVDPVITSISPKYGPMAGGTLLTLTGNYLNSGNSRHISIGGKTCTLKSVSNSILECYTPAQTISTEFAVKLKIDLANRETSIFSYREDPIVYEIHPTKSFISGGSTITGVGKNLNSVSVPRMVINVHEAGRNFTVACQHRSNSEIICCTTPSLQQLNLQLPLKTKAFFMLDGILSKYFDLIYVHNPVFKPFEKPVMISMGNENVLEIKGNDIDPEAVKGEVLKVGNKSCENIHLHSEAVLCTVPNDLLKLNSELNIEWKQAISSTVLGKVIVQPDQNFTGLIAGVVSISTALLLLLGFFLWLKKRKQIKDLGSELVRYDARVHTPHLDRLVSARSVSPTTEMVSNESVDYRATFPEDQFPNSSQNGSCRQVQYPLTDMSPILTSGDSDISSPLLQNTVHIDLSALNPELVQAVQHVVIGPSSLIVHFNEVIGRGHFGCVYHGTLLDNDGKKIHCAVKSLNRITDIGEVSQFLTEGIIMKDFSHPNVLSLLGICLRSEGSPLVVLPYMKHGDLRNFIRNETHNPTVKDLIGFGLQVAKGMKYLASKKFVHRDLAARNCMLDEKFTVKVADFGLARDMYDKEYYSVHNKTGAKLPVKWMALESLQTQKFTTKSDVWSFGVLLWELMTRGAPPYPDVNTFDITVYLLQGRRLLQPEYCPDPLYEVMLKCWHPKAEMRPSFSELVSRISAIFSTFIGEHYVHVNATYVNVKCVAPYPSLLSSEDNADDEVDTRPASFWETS

Met [2] = biological target: T1, Met; experiment: Human Met kinase assay (33P radiometric, KinaseProfiler); type: biochemical; conditions: 10 μM ATP, read-out: c-Met IC50
Experimental: (§1) Kinase activity and compound inhibition were investigated using the ^33P-Phosphoryl transfer radiometric kinase assay, performed using the KinaseProfiler™ service of Eurofins Pharma Discovery Services UK Limited. Dose-response experiments were performed using nine compound concentrations in a 96-well microtiter plate. For each assay, all compounds were prepared to a 50× final assay concentration (50 μM) in 100% DMSO, then diluted in a half-log series, with the final top concentration at 1 μM. This working stock of the compound was added to the assay well as the first component in the reaction, followed by the remaining components as detailed in the following assay protocols below. The positive control wells (100% kinase activity) contain all components of the reaction including 2% DMSO (control for solvent effects), except the compound of interest. Blank wells contain all components of the reaction, with the reference inhibitor, staurosporine. This reference compound was used to abolish kinase activity and generated the 0% kinase activity base-line. IC50 values were calculated by nonlinear regression analysis using the sigmoidal dose-response (variable slope) curve fit on XLFit version 5.3 (ID Business Solutions).
Human Met (residues R974-S1390 with A1209G and V1290L, 3.4 nM) was incubated with 8 mM MOPS pH 7.0, 0.2 mM EDTA, 250 μM KKKGQEEEYVFIE (SEQ ID NO. 45), 1 mM sodium orthovanadate, 5 mM […], 10 mM magnesium acetate, and 10 μM [γ-33P-ATP]. The reaction was initiated by the addition of the Mg/ATP mix. After incubation for 40 minutes at room temperature, the reaction was stopped by the addition of phosphoric acid to a concentration of 0.5%. A reaction aliquot of 10 μL was then spotted onto a P30 filtermat and washed four times for 4 minutes in 0.425% phosphoric acid and once in methanol prior to drying and scintillation counting. Incorporated 33P was measured using the Wallac Microbeta scintillation counter (Perkin Elmer).

Human Axl = Human Axl (Homo sapiens (Human), UniProt P30530, Q764R); experiment: Human AXL kinase assay (33P radiometric, KinaseProfiler); type: biochemical; conditions: 10 μM ATP
Human Axl, sequence (P30530 473-894 Q764R): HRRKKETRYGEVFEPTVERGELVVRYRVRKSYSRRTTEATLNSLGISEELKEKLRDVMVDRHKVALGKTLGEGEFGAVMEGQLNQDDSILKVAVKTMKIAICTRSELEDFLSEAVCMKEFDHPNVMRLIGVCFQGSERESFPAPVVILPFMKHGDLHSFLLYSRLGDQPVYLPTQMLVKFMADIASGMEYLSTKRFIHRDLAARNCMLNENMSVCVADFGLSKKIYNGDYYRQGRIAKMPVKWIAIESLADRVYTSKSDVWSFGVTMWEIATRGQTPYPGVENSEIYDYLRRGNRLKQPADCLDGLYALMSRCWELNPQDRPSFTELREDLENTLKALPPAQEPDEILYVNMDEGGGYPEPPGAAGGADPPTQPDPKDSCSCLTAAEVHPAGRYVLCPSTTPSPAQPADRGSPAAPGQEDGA
Experimental: as §1
Human Axl (residues H473-A894 with Q764R, 161 nM) was incubated with 8 mM MOPS pH 7.0, 0.2 mM EDTA, 250 μM KKSRGDYMTMQIG (SEQ ID NO. 43), 10 mM magnesium acetate and 10 μM [γ-33P-ATP]. The reaction was initiated by the addition of the Mg/ATP mix. After incubation for 40 minutes at room temperature, the reaction was stopped by the addition of phosphoric acid to a concentration of 0.5%. A reaction aliquot of 10 μL was then spotted onto a P30 filtermat and washed four times for 4 minutes in 0.425% phosphoric acid and once in methanol prior to drying and scintillation counting. Incorporated ^33P was measured using the Wallac Microbeta scintillation counter (Perkin Elmer).

KDR = KDR (Homo sapiens (Human), UniProt P35968); experiment: KDR autophosphorylation ELISA in HUVEC cells; type: cell-based; conditions: cellular, VEGF165-stimulated, phospho-KDR ELISA
KDR, sequence (P35968 20-1356): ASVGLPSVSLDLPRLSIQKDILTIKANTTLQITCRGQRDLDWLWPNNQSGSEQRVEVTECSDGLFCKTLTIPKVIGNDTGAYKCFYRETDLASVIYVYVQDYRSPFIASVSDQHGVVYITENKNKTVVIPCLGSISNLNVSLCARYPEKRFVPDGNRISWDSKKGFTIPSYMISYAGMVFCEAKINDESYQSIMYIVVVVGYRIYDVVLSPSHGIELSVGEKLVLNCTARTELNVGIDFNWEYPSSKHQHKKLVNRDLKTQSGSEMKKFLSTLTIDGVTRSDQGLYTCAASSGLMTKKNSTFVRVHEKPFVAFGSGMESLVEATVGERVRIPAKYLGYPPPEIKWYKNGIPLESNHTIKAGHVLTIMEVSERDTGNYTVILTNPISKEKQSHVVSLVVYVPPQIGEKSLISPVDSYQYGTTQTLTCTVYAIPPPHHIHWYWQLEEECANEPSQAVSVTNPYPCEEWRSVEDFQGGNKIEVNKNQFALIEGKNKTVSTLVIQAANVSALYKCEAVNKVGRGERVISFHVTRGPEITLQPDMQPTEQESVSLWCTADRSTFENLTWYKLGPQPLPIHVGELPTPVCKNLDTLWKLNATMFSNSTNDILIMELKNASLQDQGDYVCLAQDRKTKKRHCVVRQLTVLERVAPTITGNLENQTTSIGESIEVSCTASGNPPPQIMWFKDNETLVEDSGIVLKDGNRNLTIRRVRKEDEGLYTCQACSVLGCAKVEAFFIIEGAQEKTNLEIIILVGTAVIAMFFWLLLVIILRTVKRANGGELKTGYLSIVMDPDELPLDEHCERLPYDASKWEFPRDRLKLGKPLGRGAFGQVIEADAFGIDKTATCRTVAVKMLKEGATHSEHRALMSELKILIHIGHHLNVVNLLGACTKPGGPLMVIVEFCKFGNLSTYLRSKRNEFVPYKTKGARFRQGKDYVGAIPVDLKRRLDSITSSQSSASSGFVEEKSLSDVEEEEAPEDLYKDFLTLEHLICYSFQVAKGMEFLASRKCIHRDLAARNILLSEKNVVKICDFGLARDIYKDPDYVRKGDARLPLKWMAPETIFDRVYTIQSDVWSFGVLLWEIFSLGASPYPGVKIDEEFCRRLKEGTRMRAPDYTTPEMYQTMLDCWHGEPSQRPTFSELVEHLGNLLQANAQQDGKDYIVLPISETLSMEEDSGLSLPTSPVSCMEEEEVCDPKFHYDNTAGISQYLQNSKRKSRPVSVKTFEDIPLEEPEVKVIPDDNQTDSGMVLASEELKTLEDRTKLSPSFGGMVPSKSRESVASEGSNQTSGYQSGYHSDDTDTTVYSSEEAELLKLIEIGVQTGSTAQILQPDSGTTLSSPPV
How it was run: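 Inhibition of VEGF165-induced KDR phosphorylation was determined in serum-starved HUVEC after 1 h compound pretreatment and 5 min stimulation with 100 ng/mL VEGF165. Lysate phospho-KDR was measured by ELISA; IC50 values came from a 4-parameter logistic fit of 8-point curves.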

| SMILES | IC50 (Met [1]) | IC50 (Met [2]) | IC50 (Human Axl) | IC50 (KDR) |
| --- | --- | --- | --- | --- |
| COC(=O)c1cc2c(Oc3ccc(NC(=O)C4(C(=O)Nc5ccc(F)cc5)CC4)cn3)ccnc2cc1OC [Compound 10, Methyl 4-[5-[[1-[(4-fluorophenyl)carbamoyl]cyclopropanecarbonyl]-amino]pyridin-2-yl]oxy-7-methoxyquinoline-6-carboxylate] | 0.1 to 0.3 µM | ≤ 0.01 µM | ≤ 0.01 µM | 0.01 to 0.1 µM |
| COC(=O)c1cc2c(Oc3ncc(NC(=O)C4(C(=O)Nc5ccc(F)cc5)CC4)cc3Cl)ccnc2cc1OC [Compound 11, Methyl 4-[3-chloro-5-[[1-[(4-fluorophenyl)carbamoyl]cyclopropanecarbonyl]-amino]pyridin-2-yl]oxy-7-methoxyquinoline-6-carboxylate] | 0.01 to 0.1 µM | ≤ 0.01 µM | ≤ 0.01 µM | > 0.3 µM |
| COc1cc2nccc(Oc3ccc(NC(=O)C4(C(=O)Nc5ccc(F)cc5)CC4)cn3)c2cc1C(N)=O [Compound 16, 1-N′-[6-(6-Carbamoyl-7-methoxyquinolin-4-yl)oxypyridin-3-yl]-1-N-(4-fluorophenyl)-cyclopropane-1,1-dicarboxamide] | 0.1 to 0.3 µM | ≤ 0.01 µM | 0.01 to 0.1 µM | 0.01 to 0.1 µM |
| CNC(=O)c1cc2c(Oc3ccc(NC(=O)C4(C(=O)Nc5ccc(F)cc5)CC4)cn3)ccnc2cc1OC [Compound 17, 1-N-(4-Fluorophenyl)-1-N′-[6-[7-methoxy-6-(methylcarbamoyl)quinolin-4-yl]oxypyridin-3-yl]cyclopropane-1,1-dicarboxamide] | 0.1 to 0.3 µM | 0.01 to 0.1 µM | 0.01 to 0.1 µM | 0.01 to 0.1 µM |
| COc1cc2nccc(Oc3ncc(NC(=O)C4(C(=O)Nc5ccc(F)cc5)CC4)cc3Cl)c2cc1C(N)=O [Compound 18, 1-N′-[6-(6-Carbamoyl-7-methoxyquinolin-4-yl)oxy-5-chloropyridin-3-yl]-1-N-(4-fluorophenyl)cyclopropane-1,1-dicarboxamide] | 0.01 to 0.1 µM | ≤ 0.01 µM | ≤ 0.01 µM | > 0.3 µM |
| COc1cc2nccc(Oc3ccc(NC(=O)C4(C(=O)Nc5ccc(F)cc5)CC4)cn3)c2cc1-c1cn[nH]c1 [Compound 60, 1-N-(4-Fluorophenyl)-1-N′-[6-[7-methoxy-6-(1H-pyrazol-4-yl)quinolin-4-yl]oxypyridin-3-yl]cyclopropane-1,1-dicarboxamide] | 0.01 to 0.1 µM | ≤ 0.01 µM | ≤ 0.01 µM | 0.1 to 0.3 µM |
| COc1cc2nccc(Oc3ncc(NC(=O)C4(C(=O)Nc5ccc(F)cc5)CC4)cc3Cl)c2nc1OC [Compound 80, 1-N′-[5-Chloro-6-[(6,7-dimethoxy-1,5-naphthyridin-4-yl)oxy]pyridin-3-yl]-1-N-(4-fluorophenyl)cyclopropane-1,1-dicarboxamide] | 0.01 to 0.1 µM | 0.01 to 0.1 µM | 0.01 to 0.1 µM | > 0.3 µM |
| COc1cc2nccc(Oc3ccc(NC(=O)C4(C(=O)Nc5ccc(F)cc5)CC4)cn3)c2nc1OC [Compound 81, 1-N′-[6-[(6,7-Dimethoxy-1,5-naphthyridin-4-yl)oxy]pyridin-3-yl]-1-N-(4-fluorophenyl)cyclopropane-1,1-dicarboxamide] | 0.1 to 0.3 µM | 0.01 to 0.1 µM | 0.01 to 0.1 µM | > 0.3 µM |
| COc1cc2nccc(Oc3ncc(NC(=O)C4(C(=O)Nc5ccc(F)cc5)CC4)cc3F)c2nc1OC [Compound 82, 1-N′-[6-[(6,7-Dimethoxy-1,5-naphthyridin-4-yl)oxy]-5-fluoropyridin-3-yl]-1-N-(4-fluorophenyl)cyclopropane-1,1-dicarboxamide] | 0.01 to 0.1 µM | ≤ 0.01 µM | ≤ 0.01 µM | > 0.3 µM |
